Converted amounts (≈) assume the structure as drawn.
Legend:
M. tuberculosis H37Rv = assay: Antimycobacterial MIC / primary screening, MABA (microplate alamar blue assay); assay type: cell-based; settings: Mycobacterium tuberculosis
M. abscessus = assay: Antimycobacterial MIC / primary screening, MABA; assay type: cell-based; settings: Mycobacteroides abscessus, read-out: MIC M. abscessus
L929 cells = assay: Cytotoxicity, MTT protocol (ISO 10993-5:2009(E)); assay type: cell-based; settings: ratio to MIC against M. tuberculosis
Description: This evaluation adhered precisely to international standards (ISO 10993-5:2009(E)), employing L929 cells and the MTT protocol ([Bekier et al., 2021]). The determination of the half maximal inhibitory concentration (IC50) values was carried out for 12 out of the 13 compounds tested, considering the occurrence of derivative precipitation in the growth medium for L929 cells (Table 1). […] For two compounds (5g and 5i), the discriminatory index (IC50/MIC) was identified at the level of 20.

M. bovis BCG = assay: microbe, parasite or virus in culture; assay type: cell-based; settings: Mycobacterium tuberculosis variant bovis BCG, read-out: MIC M. bovis BCG

| Compound | MIC (M. tuberculosis H37Rv) | MIC (M. abscessus) | IC50-L929/MIC Mtb (cytotoxicity / discriminatory index) (L929 cells) | melting point | MIC (M. bovis BCG) |
| --- | --- | --- | --- | --- | --- |
| Cc1c(-c2cc(C(=O)O)c3cc(Br)ccc3n2)nnn1-c1ccc(Cl)cc1 [Compound 5v, 6-Bromo-2-(1-(4-chlorophenyl)-5-methyl-1H-1,2,3-triazol-4-yl)benzo [b]pyridine-4-carboxylic acid] | 15 µg/mL (≈ 33.8 µM) | > 125 µg/mL | 13 | > 300 °C | < 125 µg/mL |
| Cc1c(-c2cc(C(=O)O)c3ccccc3n2)nnn1-c1ccc(Cl)cc1 [Compound 5f, 2-(1-(4-Chlorophenyl)-5-methyl-1H-1,2,3-triazol-4-yl)benzo [b]pyridine-4-carboxylic acid] | 62.5 µg/mL (≈ 171 µM) | > 125 µg/mL |  | 246 to 248 °C | < 125 µg/mL |
| Cc1c(-c2cc(C(=O)O)c3cc(Cl)ccc3n2)nnn1-c1cccc(Br)c1 [Compound 5L, 2-(1-(3-Bromophenyl)-5-methyl-1H-1,2,3-triazol-4-yl)-6-chlorobenzo [b]pyridine-4-carboxylic acid] | 15 µg/mL (≈ 33.8 µM) | > 125 µg/mL | 13 | 248 to 250 °C | < 125 µg/mL |
| COc1ccc(-n2nnc(-c3cc(C(=O)O)c4ccccc4n3)c2C)cc1 [Compound 5b, 2-(1-(4-Methoxyphenyl)-5-methyl-1H-1,2,3-triazol-4-yl)benzo[b]pyridine-4-carboxylic acid] | 62.5 µg/mL (≈ 173 µM) | > 125 µg/mL |  | 222 to 224 °C | < 125 µg/mL |
| Cc1c(-c2cc(C(=O)O)c3ccccc3n2)nnn1-c1cccc(Cl)c1 [Compound 5c, 2-(1-(3-Chlorophenyl)-5-methyl-1H-1,2,3-triazol-4-yl)benzo [b]pyridine-4-carboxylic acid] | 62.5 µg/mL (≈ 171 µM) | > 125 µg/mL |  | 276 to 277 °C | < 125 µg/mL |
| Cc1c(-c2cc(C(=O)O)c3cc(Br)ccc3n2)nnn1-c1cccc(Cl)c1 [Compound 5s, 6-Bromo-2-(1-(3-chlorophenyl)-5-methyl-1H-1,2,3-triazol-4-yl)benzo [b]pyridine-4-carboxylic acid] | 15 µg/mL (≈ 33.8 µM) | > 125 µg/mL | 13 | > 300 °C | < 125 µg/mL |
| Cc1c(-c2cc(C(=O)O)c3cc(Cl)ccc3n2)nnn1-c1ccc([N+](=O)[O-])cc1 [Compound 5p, 6-Chloro-2-(5-methyl-1-(4-nitrophenyl)-1H-1,2,3-triazol-4-yl)benzo [b]pyridine-4-carboxylic acid] | 62.5 µg/mL (≈ 153 µM) | > 125 µg/mL |  | 235 to 237 °C | < 125 µg/mL |
| Cc1c(-c2cc(C(=O)O)c3cc(Br)ccc3n2)nnn1-c1ccccc1 [Compound 5q, 6-Bromo-2-(5-methyl-1-phenyl-1H-1,2,3-triazol-4-yl)benzo [b]pyridine-4-carboxylic acid] | 15 µg/mL (≈ 36.7 µM) | > 125 µg/mL |  | > 300 °C | < 125 µg/mL |
| Cc1c(-c2cc(C(=O)O)c3cc(Br)ccc3n2)nnn1-c1ccc(Br)cc1 [Compound 5w, 6-Bromo-2-(1-(4-bromophenyl)-5-methyl-1H-1,2,3-triazol-4-yl)benzo [b]pyridine-4-carboxylic acid] | 15 µg/mL (≈ 30.7 µM) | > 125 µg/mL | 10 | > 300 °C | < 125 µg/mL |
| COc1ccc(-n2nnc(-c3cc(C(=O)O)c4cc(Br)ccc4n3)c2C)cc1 [Compound 5r, 6-Bromo-2-(1-(4-methoxyphenyl)-5-methyl-1H-1,2,3-triazol-4-yl)benzo [b]pyridine-4-carboxylic acid] | 15 µg/mL (≈ 34.1 µM) | > 125 µg/mL | 5 | 294 to 295 °C | < 125 µg/mL |
| Cc1c(-c2cc(C(=O)O)c3ccccc3n2)nnn1-c1cccc(Br)c1 [Compound 5d, 2-(1-(3-Bromophenyl)-5-methyl-1H-1,2,3-triazol-4-yl)benzo [b]pyridine-4-carboxylic acid] | 62.5 µg/mL (≈ 153 µM) | > 125 µg/mL |  | 248 to 250 °C | < 125 µg/mL |
| Cc1c(-c2cc(C(=O)O)c3ccccc3n2)nnn1-c1ccc([N+](=O)[O-])cc1 [Compound 5h, 2-(5-Methyl-1-(4-nitrophenyl)-1H-1,2,3-triazol-4-yl)benzo [b]pyridine-4-carboxylic acid] | 125 µg/mL (≈ 333 µM) | > 125 µg/mL |  | 265 to 267 °C | < 125 µg/mL |
| Cc1c(-c2cc(C(=O)O)c3cc(Cl)ccc3n2)nnn1-c1ccc(F)cc1 [Compound 5m, 6-Chloro-2-(1-(4-fluorophenyl)-5-methyl-1H-1,2,3-triazol-4-yl)benzo [b]pyridine-4-carboxylic acid] | 62.5 µg/mL (≈ 163 µM) | > 125 µg/mL |  | 298 to 299 °C | < 125 µg/mL |
| Cc1c(-c2cc(C(=O)O)c3cc(Br)ccc3n2)nnn1-c1cccc(Br)c1 [Compound 5t, 6-Bromo-2-(1-(3-bromophenyl)-5-methyl-1H-1,2,3-triazol-4-yl)benzo [b]pyridine-4-carboxylic acid] | 15 µg/mL (≈ 30.7 µM) | > 125 µg/mL | 13 | 299 to 300 °C | < 125 µg/mL |
| Cc1c(-c2cc(C(=O)O)c3cc(Cl)ccc3n2)nnn1-c1ccc(Br)cc1 [Compound 5o, 2-(1-(4-Bromophenyl)-5-methyl-1H-1,2,3-triazol-4-yl)-6-chlorobenzo [b]pyridine-4-carboxylic acid] | 15 µg/mL (≈ 33.8 µM) | > 125 µg/mL | 10 | > 300 °C | < 125 µg/mL |
| Cc1c(-c2cc(C(=O)O)c3cc(Br)ccc3n2)nnn1-c1ccc([N+](=O)[O-])cc1 [Compound 5x, 6-Bromo-2-(5-methyl-1-(4-nitrophenyl)-1H-1,2,3-triazol-4-yl)benzo [b]pyridine-4-carboxylic acid] | 125 µg/mL (≈ 275 µM) | > 125 µg/mL |  | 236 to 238 °C | < 125 µg/mL |
| Cc1c(-c2cc(C(=O)O)c3ccccc3n2)nnn1-c1ccccc1 [Compound 5a, 2-(5-Methyl-1-phenyl-1H-1,2,3-triazol-4-yl)benzo [b]pyridine-4-carboxylic acid] | 125 µg/mL (≈ 378 µM) | > 125 µg/mL |  | 278 to 280 °C | < 125 µg/mL |
| COc1ccc(-n2nnc(-c3cc(C(=O)O)c4cc(Cl)ccc4n3)c2C)cc1 [Compound 5j, 6-Chloro-2-(1-(4-methoxyphenyl)-5-methyl-1H-1,2,3-triazol-4-yl)benzo [b]pyridine-4-carboxylic acid] | 15 µg/mL (≈ 38 µM) | > 125 µg/mL | 10 | 287 to 289 °C | < 125 µg/mL |
| Cc1c(-c2cc(C(=O)O)c3ccccc3n2)nnn1-c1ccc(F)cc1 [Compound 5e, 2-(1-(4-Fluorophenyl)-5-methyl-1H-1,2,3-triazol-4-yl)benzo [b]pyridine-4-carboxylic acid] | 125 µg/mL (≈ 359 µM) | > 125 µg/mL |  | 290 to 291 °C | < 125 µg/mL |
| Cc1c(-c2cc(C(=O)O)c3cc(Br)ccc3n2)nnn1-c1ccc(F)cc1 [Compound 5u, 6-Bromo-2-(1-(4-fluorophenyl)-5-methyl-1H-1,2,3-triazol-4-yl)benzo [b]pyridine-4-carboxylic acid] | 62.5 µg/mL (≈ 146 µM) | > 125 µg/mL |  | > 300 °C | < 125 µg/mL |

Source: article PMC11337105, “Identification of 2-(N-aryl-1,2,3-triazol-4-yl) quinoline derivatives as antitubercular agents endowed with InhA inhibitory activity” (Frontiers in Chemistry, 2024)
